Measurements reported in patent US20250248393A1, “METHOD OF RELEASING A SEMIOCHEMICAL IN THE ENVIRONEMENT BY PASSIVE DIFFUSION, SYSTEM AND MEANS, ESPECIALLY STICKS, TO THIS END, AND USES THEREOF” (SIGNS, priority 2024, published 2025).
Like-named read-outs stand apart in the source and are kept apart here. Values belong to the compound of their own block, whether it stands above or below them.

Key:
[1] = cited from earlier work
[2] = Ratios of molecules diffused through the sticks over time; format: physicochemical
Procedure: Furthermore, as small molecules diffuse more, it happens that they lose intensity over the course of the study, so the ratios are different 24 hours after immersing the sticks in the liquid and 21 days later. Here are the ratios for each pheromone studied at the start of the study and at the end.

[3] = F3 block stability study in sodium stearate aqueous gel (GC-MS); format: physicochemical; conditions: after 3 months
Procedure: Aqueous sodium stearate gel is a method used by SIGNS for several of the pheromones it markets (pork, poultry, rabbit). The sodium stearate matrix is cast at high temperature (60° C.) and contains 2% pheromone. In this study, matrix samples are taken by coring, and the active ingredients are extracted by apolar solvent, using the SIGNS-validated quality control method. Extracts are analyzed by GC-MS. […] Given this observation, formula F3 cannot be used in blocks for passive diffusion, so a change of galenic formulation is necessary.

[4] = F3 migration along the stick (top 1 cm, GC/MS); format: physicochemical; conditions: F3, five sticks
Procedure: Three devices containing 40 mL of F3 feline facial pheromone product and five […] sticks were prepared and left on diffusion. A t=1 day, T=3 days, T=10 days, T=15 days and T=22 days after preparation of the devices, one stick was taken on each device and 1 cm of the top of each stick was cut, then extracted with acetone 1 h in an ultrasonic bath and analysed by gas chromatography coupled with mass spectrometry (GC/MS). The same analytical parameters were used for the study C with a liquid injection (injected quantity: […]) Blank analysis and matrix blank analysis were also performed.

[5] = F3 sticks device, direct diffusion, 40 mL and four sticks (SPME GC/MS); format: physicochemical; conditions: four sticks
Procedure: Three devices containing 40 mL of F3 feline facial pheromone product and four rattan sticks were prepared and left on diffusion. Every Monday, Wednesday and Friday, the diffusion of the pheromone in air was checked by analysis by gas chromatography coupled with mass spectrometer (GC/MS) and SPME (solid phase microextraction) until there is no liquid left (about 22 days).
To that purpose, the studied device was taken and placed into a closed space (in our case an aquarium turned over) containing the SPME fiber as shown on FIG. 24.
The SPME fiber was left for two hours to give the time for the molecules to adsorb on the fiber, then the fiber was injected into the GC/MS instrument for analysis.
Analysis were carried out using gas chromatography with mass spectrometer. The instrument was a GCMS QP2010SE® from Shimadzu with an AOC6000® Autosampler. The separation was performed on a ZB-5 MS® column (30 m×0.25 mm×0.25 μm, stationary phase: 95% Dimethylpolysiloxane, 5% Phenyl-Arylene) from Phenomenex. The GC oven temperature was initially held at 100° C. for 1 minute then increased at a pace of 10° C./min to 120° C. and left at this temperature for 3 minutes. Finally, the oven temperature was increased at a pace of 10° C./min to 240° C. and left at this temperature for 10 minutes. The carrier gas was helium at 1 mL/min. Analysis were performed in split mode using a split/splitless injector (Temperature: 250° C., split: 1:20). The SPME fiber was directly injected into the injector and left for 30 minutes. Separated molecules were detected using a mass spectrometer which was operated in electron impact ionization (EI) in both full scan (FS) and single ion monitoring (SIM) modes, so called FASST (Fast Automated SCAN/SIM type) mode. The interface temperature was set at 300° C. and electron impact source temperature at 250° C. The analyser was a quadrupole.
For the measurement of the relative quantity of active ingredient spreading in air, the area of the chromatographic peak corresponding to the compound was measured using Shimadzu GCMS-Solution software.

[6] = Indirect assay of diffuser blocks (GC/FID, pheromone remaining in the block); format: physicochemical; conditions: despecified pheromone
Procedure: Analyses were carried out using the gas chromatography (GC) technique with a flame ionization detector (FID), commonly known as GC/FID. The instrument used was the Shimadzu GC2025.® • Injection: Quantity injected: 1 μL, split 50:1, temperature: 230° C. • Separation: DB-WAX column (Agilent), length: 20 m, diameter: 180 μm, film thickness: […] • Carrier gas: Helium (He) • Analysis time: 11.50 min (not including time to return to equilibrium between each analysis) injection). • Detection: FID, temperature: 250° C., flow rates: H2: 40 mL/min, Air: 400 mL/min, Nitrogen (make-up): 30 mL/min. To obtain a representative sample, “cores” were drilled at various positions in the block and then collected. 2.5 g of gel were weighed into a 50 mL volumetric flask and the volume made up to the beginning of the neck of the flask with acetone. The flask was then placed in an ultrasonic bath for one hour until the block was dissolved (a white precipitate was obtained), then acetone was added to the mark. An aliquot of this solution was placed in a syringe fitted with a syringe filter and filtered to obtain a translucent solution. The resulting solution was transferred to a 1.5 mL GC vial for analysis. The assays were carried out using a calibration range.

[7] = Direct diffusion of diffuser blocks (SPME GC/MS); format: physicochemical; conditions: despecified pheromone 2%, 4 weeks
Procedure: Analyses were carried out using gas chromatography (GC) coupled to a mass spectrometer (MS) detector, a technique commonly referred to as GCMS. The molecules of interest were extracted using the Solid Phase Micro-Extraction (SPME) technique. The instrument used was the following: QP2010SE® from Shimadzu (See FIG. 4).
AOC 6000® automatic feeder • Extraction/SPME fiber: polyacrylate/Fused silica (85 μm), 23 Ga. • Adsorption time: 2 hours (exposure time of fiber above block) (See FIG. 4) • Desorption time: 30 minutes (fiber exposure time in injector) • Fiber-block distance: 2 cm • Injection: split/splitless injector • Temperature: 250° C., split 50 mode. • Separation: ZB-FFAP® column (Phénomenex), length: 30 m, diameter: 250 μm, film thickness: […]
• Carrier gas: Helium (He) • Analysis time: 18 min (not including time to return to equilibrium between each analysis injection • Detection: mass spectrometer with electron impact source/analyzer: quadrupole. • Source temperature: 200° C. • Interface temperature: 250° C. • Scan m/z 50 to m/z 500 • SIM with ions 55, 66 and 74.
Analyses were carried out in triplicate to verify reproducibility of results.
With the SPME method, results are evaluated by measuring the chromatographic peak area. The data have been plotted on diffusion curve (see FIGS. 5 and 6).

[8] = Pheromone migrated to the stick tips (GC/FID); format: physicochemical; conditions: on stick tips, despecified pheromone
Procedure: In the course of this study, we also measured the amount of pheromone migrating on the sticks, to check that the pheromone had migrated to the top of the sticks, helping it to diffuse into the air. To do this, the test is the same as for the diffuser blocks: 2.5 g of stick tips are cut off and placed in a 50 mL flask, which is then placed in an ultrasonic bath for one hour. The resulting solution is filtered (to avoid injecting particles into the instrument) and placed in a chromatographic vial for analysis.

[9] = Indirect assay of rod diffuser solution (GC/FID); format: physicochemical; conditions: stick diffuser solution, despecified pheromone
Procedure: Solution integrity was checked at each analysis time. Before each indirect assay, the vial was weighed to visualize mass loss over time. Each vial contained six sticks. • Specifications: the solution must lose mass over time. • Result: Compliant—See FIG. 9 This is the same analytical method as for the diffuser block study, only the sample preparation differs. 1.25 g of solution were weighed into a 25 mL volumetric flask and the volume made up to the mark with acetone. The resulting solution is transferred to a 1.5 mL GC vial for analysis. This is exactly the same calibration range as for the diffuser block study.

[10] = DAP PCDS direct diffusion (SPME-GC/MS); format: physicochemical; conditions: DAP/PCDS diffuser, 40 mL, 6 capillaries
Procedure: Three diffusers, each containing 40 mL of solution and 6 capillaries, were prepared and diffused. The first points were measured at T=1d, T=2, and T=3d, then every Monday, Wednesday and Friday of each study week until the diffusers no longer contained any solution. To measure the pheromone released into the air at each study time, the diffuser is first weighed (with the sticks) to measure mass loss, then placed in an enclosed area (in this case, an upside-down aquarium) containing a SPME fiber, as shown in FIG. 24.
The fiber is left to diffuse above the diffuser for 2 hours (a time determined in a previous method development as the optimum time for molecules to adsorb to the phase), then analyzed using the gas chromatography/mass spectrometry (GC/MS) technique.
Three diffusers were studied for greater accuracy. The chromatograms obtained are reprocessed using GC/MS Solution software.
For each chromatographic peak, the area is recorded using GC/MS Solution software, then entered into an Excel spreadsheet. Diffusion curves giving the area of the chromatographic peak corresponding to each active ingredient as a function of time are then plotted.
Analyses were carried out by gas chromatography/mass spectrometry (GC/MS). The instrument was a Shimadzu GCMS QP2010SE® equipped with an AOC 6000® autosampler. Separation was carried out on a ZB-FFAP® column (30 m×0.25 mm×0.25 μm, stationary phase: nitroterephthalic acid-modified polyethylene glycol) supplied by Phenomenex. The furnace temperature was initially set at 80° C. for 1 minute, then increased at 10° C./min to 240° C. and maintained at this temperature for 2 minutes. The carrier gas was helium at a flow rate of 1 mL/min. Analysis time is 19 minutes.
The injector is a split/splitless injector used in split mode (temperature: 250° C., split: 50:1). The SPME fiber was injected directly into the injector and left to desorb for 15 minutes.
The separated molecules were detected using a mass spectrometer equipped with an electron impact source (temperature: 200° C.). The analyzer is a simple quadrupole. The interface temperature is 250° C. Data were acquired in FASST mode (Fast automated SCAN/SIM type), i.e. part of the analysis was performed by scanning all ions (SCAN) and part by selecting specific ions (SIM). Target molecules were thus analyzed using ion selection.

[11] = F3P, 24 h after immersion of the sticks
[12] = F3P, 21 days after immersion of sticks (empty tank)
[13] = DAP, 24 h after immersion of sticks
[14] = DAP, 21 days after immersion of sticks (empty tank)

SMILES: COC(C)(C)CCO [3-methoxy-3-methyl-1-butanol]
vapor pressure ([1]; at 20° C.): 0.07 kPa | vapor pressure ([1]; at 25° C.): 0.12 kPa

SMILES: COC(=O)CCCCCCCC(=O)OC [dimethyl azelate, dimethyl nonanedioate]
ratio of molecules diffused through the sticks ([2]; F3, 24 h after immersion of sticks): 25 % (w/w) | ratio of molecules diffused through the sticks ([2]; F3, 21 days after immersion of sticks (empty tank)): 43 % (w/w) | ratio of molecules diffused through the sticks [2, 11]: 18 % (w/w) | ratio of molecules diffused through the sticks [2, 12]: 31.3 % (w/w) | stability in the block [3]: disappeared completely | relative quantity on the top of the stick [4]: less present | direct diffusion over time [5]: constant diffusion

SMILES: CCCCC/C=C\C/C=C\CCCCCCCC(=O)OC [methyl linoleate, methyl (9Z,12Z)-octadeca-9,12-dienoate]
% of the active ingredient in the pheromone ([6]; day 0): 30.4% | % of the active ingredient in the pheromone ([6]; day 7): 30.2% | % of the active ingredient in the pheromone ([6]; day 14): 30.4% | % of the active ingredient in the pheromone ([6]; day 21): 30.5% | % of the active ingredient in the pheromone ([6]; day 28): 30.5% | direct diffusion from the diffuser block [7]: lowest intensity | ratio of molecules diffused through the sticks [2, 13]: 3 % (w/w) | ratio of molecules diffused through the sticks [2, 14]: 4 % (w/w) | ratio of molecules diffused through the sticks ([2]; Despecified pheromone (Core), 5 days after immersion of the sticks): 2 % (w/w) | ratio of molecules diffused through the sticks ([2]; Despecified pheromone (Core), 21 days after immersion of sticks (empty tank)): 4 % (w/w) | ratio of molecules diffused through the sticks [2, 11]: 0.3 % (w/w) | ratio of molecules diffused through the sticks [2, 12]: 0.5 % (w/w) | % of the active ingredient in the pheromone ([8]; day 7): 29.7% | % of the active ingredient in the pheromone ([8]; day 14): 30.1% | % of the active ingredient in the pheromone ([8]; day 21): 28.6% | % of the active ingredient in the pheromone ([9]; day 0): 30.0% | % of the active ingredient in the pheromone ([9]; day 7): 30.0% | % of the active ingredient in the pheromone ([9]; day 14): 30.1% | % of the active ingredient in the pheromone ([9]; day 21): 31.5% | direct diffusion over time [10]: slight increase over time

The next lines start with the values.

ratio of molecules diffused through the sticks [2, 13]: 7 % (w/w) | ratio of molecules diffused through the sticks [2, 14]: 9 % (w/w) | direct diffusion over time [10]: slight increase over time
SMILES: CCCCCCCCCCCCCCC(=O)OC [methyl pentadecanoate]

ratio of molecules diffused through the sticks [2, 13]: 0.5 % (w/w) | ratio of molecules diffused through the sticks [2, 14]: 1 % (w/w) | ratio of molecules diffused through the sticks [2, 11]: 0.1 % (w/w) | ratio of molecules diffused through the sticks [2, 12]: 0.1 % (w/w) | direct diffusion over time [10]: diffuses the least
SMILES: CCCCCCCCCCCCCCCCCC(=O)OC [methyl stearate, methyl octadecanoate]
